This note sets out measurements from patent publication US20070299119A1, “Prophylactic or Therapeutic Agent for Severe Diabetic Retinopathy” (SANWA KAGAKU KENKYUSHO CO., LTD., priority 2004, published 2007).

This assay deals with severe retinopathy (tractional retinal detachment, IRMA) in SDT rats. Put plainly: Histopathological examination and fluorescein fundus angiography of severe retinopathy in spontaneously diabetic Torii (SDT) rats. It is filed as in vivo, rat. The procedure:
Diabetes mellitus occurs in spontaneously diabetic Torii (SDT) rats at about 20 weeks of age. Accordingly, blood glucose levels were confirmed at about 25 weeks of age, and rats showing an increase in blood glucose level (at least 300 mg/dl) were used in the experiment. The male SDT rats confirmed to develop diabetes mellitus were divided into two groups, that is, 1) untreatment control (n=14) group and 2) SNK-860 treatment (16 mg/kg/day, n=17)group. The compound was mixed with usual feed (CRF-1: Oriental Yeast Co., Ltd.) and then administered into the rats. The CRF-1 solid feed not containing the compound was freely ingested by the control group, while CRF-1 solid feed containing 0.01333% SNK-860 was freely ingested by the SNK-860 treatment group. At 36 weeks of age and at 52 to 58 weeks of age, the rats were anesthetized and then the eyeballs were excised and used in histopathological examination. The SNK-860-containing feed was prepared in the following manner. SNK-860 was weighed and mixed well with a small amount of CRF-1 powdered feed. Thereafter, additional powdered feed was added thereto, stirred well and solidified. The dose established this time was 16 mg/kg. The concentration of this agent in the feed, calculated on the basis of the established dose, the weight of the rat and the amount of the feed ingested for 1 day, was 0.01333%. The histopathological examination was carried out in the following manner. The rat was anesthetized with ether and by intraperitoneal administration of Nembutal, and then the eyeballs were excised. The excised eyeballs were placed in a mixed solution (1:1:2) consisting of 4% glutaraldehyde, 10% neutral formalin and a phosphate buffer (pH 7.2, 0.3 mol/l). After 60 minutes, the eyeball was cut into halves under a stereoscopic microscope and then stored overnight at 4° C. The next morning, the eyeballs were embedded in a usual manner into paraffin to prepare a transverse section containing a bundle of optic nerves. The section was stained with hematoxylin-eosin. Fluorescein fundus angiography was carried out by opening the chest under the same anesthesia, injecting fluorescein dextran (Sigma, 50 mg/1 ml PBS) into the heart, and after 5 minutes, excising the eyeballs. That is, the retina was separated from the excised eyeball, spread on a slide glass to prepare a flat mounted specimen of the retina, then observed with a stereoscopic fluorescent microscope and photographed to evaluate retinopathy. When retinal fold (retinal detachment) accompanied by thickening of the retina around optic nerve head was recognized in the pathological examination, or when fluorescence dye leakage accompanied by retinal vascular tortuosity and/or caliber variation around optic nerve head was recognized in the fluorescein fundus photography, it was assumed that severe retinopathy occurred in the SDT rat. […] That is, it was attempted to clarify the inhibitory effect on the onset by setting a longer duration of the disease.

Where [1] appears, read: male SDT rats, 16 mg/kg/day in feed from about 25 weeks of age, at 36 weeks of age, pathological examination.

Take `NC(=O)[C@@H]1C[C@]2(NC(=O)NC2=O)c2cc(F)ccc2O1` [SNK-860, (2S,4S)-6-fluoro-2′,5′-dioxospiro[chroman-4,4′-imidazolidine]-2-carboxamide]: where the note is “SDT rats, long-term administration”, the “inhibitory effect on the onset of tractional retinal detachment (in words)” value was “strongly inhibited”. Moreover, under setting [1], the “onset of tractional retinal detachment (affected eyes/examined eyes)” value is on record as 0/3 and the “onset of tractional retinal detachment (percent of eyes)” value turned out to be 0%. Also, where the note is “male SDT rats, 16 mg/kg/day in feed from about 25 weeks of age, at 52-58 weeks of age, untreated 7/11 eyes”, the “degree of onset of tractional retinal detachment or fluorescence dye leakage accompanied by retinal vascular tortuosity and/or caliber variation around optic nerve head (affected eyes/examined eyes)” value is recorded as 3/14. Also, for the setting “male SDT rats, 16 mg/kg/day in feed from about 25 weeks of age, at 52-58 weeks of age, untreated 64%”, the “degree of onset of tractional retinal detachment or fluorescence dye leakage accompanied by retinal vascular tortuosity and/or caliber variation around optic nerve head (percent of eyes)” value was determined as 21%.
